Patent US20230265098A1, “ALKYNE QUINAZOLINE DERIVATIVES AS INHIBITORS OF ERBB2” (EnLiven Therapeutics, Inc., priority 2020, published 2023)
Structures can show the parent of a compound that is named as a salt.

How the values were obtained:
[1] = target: T1, Ba/F3 ERBB2 A775_G776insYVMA (Homo sapiens, UniProt P04626, DUP772-775, cells depend on it); test: Cell viability assay (CellTiter Glo); format: cell-based, mouse; conditions: 72 hours; 300 cells per well, 384-well plates (Table B5); read-out: Cell Line: Ba/F3 ERBB2 A775 G776ins YVMA IC50
T1 construct: Ba/F3 cell lines were engineered to express human ERBB2 or EGFR kinases, rendering the cells IL-3 independent
Protocol: Cells were treated with compounds, and cell viability was measured as a metric of kinase inhibition.
The Ba/F3 cell line is IL-3-dependent mouse cell line derived from the C3H mouse strain. Ba/F3 cell lines were engineered to express human ERBB2 or EGFR kinases, rendering the cells IL-3 independent. The lines were generated via retroviral transduction utilizing a Moloney murine leukemia virus (MMLV) promoter, and constructs are stably integrated into the cell genome.
Similarly, Ba/F3 cell lines engineered to express EGFR, ERBB2, or ERBB2 mutants were grown, harvested, counted and seeded at 3000 cells per well in 96-well plates for the data sets shown in Tables B3-B4, and seeded at 300 cells per well in 384-well plates for the data set shown in Table B5. A subset of wells contained media only (low control, “LC”).
Table B2 provides the growth media and number of cells seeded per well for the each cell line.
Compounds were dissolved in DMSO and serially diluted. Serially-diluted compound or a DMSO only control (high control, “HC”) was added to the plated cells in each well. […] The final proportion of DMSO never exceeded 0.1%.
Plates were placed in a 37° C., 5% CO2 incubator for 72 hours. Plates were then removed from the incubator and equilibrated for 15 minutes at room temperature. 40 IA of CellTiter Glo reagent (Promega) was added to measure the relative level of metabolically active cells by quantifying intracellular ATP concentrations. Plates were incubated for 30 minutes at room temperature, and luminescence was measured. Percent viability was normalized to a vehicle control only using the following formula: % viability=100×(LumSample−LumLC) (LumHC−LumLC). Graphical curves were fitted using a nonlinear regression model with a sigmoidal dose response.

[2] = target: T2, phosphorylated ERBB2 (pERBB2) (Homo sapiens, UniProt P04626); test: Detection of phosphorylated ERBB2 (pERBB2) by ELISA in BT-474 cells; format: cell-based; conditions: four hours incubation with compound, OD 450 nm
T2 construct: endogenous in cells; host or cells: BT-474
Protocol: BT-474 cells were seeded into a 96-well at 2.0*10^4 cells/100 μl/well.
Compounds were dissolved and serially diluted in DMSO. The compounds were then were added, mixed, and incubated for four hours at 37° C., 5% CO2. Compounds were added using four-fold dilutions at final concentrations ranging from 10 μM to 0.01 nM.
Following the four hour incubation with compounds, cell lysates were prepared. Plates were centrifuged for 5 min at 3000 RPM, and supernatant was removed from each well. Cells were washed 3 times by resuspension in 150 μl PBS, followed by centrifugation and removal of the supernatant, as above. […] Cells were incubated with lysis buffer for 1 hour at 4° C., and then stored at −80° C.
Enzyme-linked immunosorbent assays (ELISA) were performed to measure phosphorylated ERBB2 levels. […] The next day, plates were washed with PBS+0.05% Tween20 (PBST). 150 μl of 5% BSA blocking solution was added for 1 hour at room temperature, with shaking. Plates were washed with PBST. Cell lysates were thawed and 100 μl of lysate was added to the ELISA plate. The plates were incubated for 2 hours at room temperature, with shaking. […] Plates were incubated for 1 hour at room temperature, with shaking. Plates were then washed with PBST, and 100 μl TMB substrate solution (R&D Systems, cat #DY999) was added. Plate were incubated in the dark for 20 minutes at room temperature. 50 μl of Stop solution (R&D Systems, cat #DY994) (50 μl) was added to each well and mixed.
Optical density at 450 nm was read on an EnSpire plate reader (Perkin Elmer). The remaining kinase activity by calculated using the following formula: % Relative activity=100×(A450sample−A450LC)/(A450HC−A450LC). The low and high control values (“LC” and “HC”) were generated from lysate from wells without cells or with cells treated with 0.1% DMSO, respectively.

[3] = target: T3, phosphorylated EGFR (pEGFR) (Homo sapiens, UniProt P00533); test: Detection of phosphorylated EGFR (pEGFR) in EGF-stimulated A431 cells (AlphaLISA); format: cell-based; conditions: A431 cells (10% FBS), 4 hours with compound, then EGF 30 ng/mL for 10 minutes
T3 construct: endogenous in cells; host or cells: A431
Protocol: Enzyme-linked immunosorbent assays (ELISA) were performed to measure phosphorylated EGFR levels using A431 cells (10% FBS). A431 (1.0*10^4 cells/40 μl/well) cells were seeded in 384 well. Compounds were dissolved in DMSO, serially diluted in DMSO and then were added, mixed, and incubated for 4 hours at 37° C., 5% CO2. Following the 4-hours incubation, cells were stimulated for 10 minutes with EGF (Invitrogen, cat #PHG0311) at a final concentration of 30 ng/mL in the incubator. The media was aspirated and cells were lysed in 10 μL lysis buffer with protease and phosphatase inhibitors (PerkinElmer, cat #ALSU-PEGFR-A50K). The plates were placed on a shaker for 5 minutes and then incubated for 30 min at 4° C. for complete lysis. The lysate was transferred to an Optiplate (Perkin Elmer, cat #6007290).
Acceptor mix (PerkinElmer, cat #ALSU-PEGFR-A50K) was prepared just before use and 5 μL was dispensed to all the wells, followed by a 1.5-2 h incubation at room temperature in dark. The donor mix (PerkinElmer, cat #ALSU-PEGFR-A50K) was prepared under low light conditions prior to use and […] of donor mix was added to all the wells under subdued lighting or green filters. The plates were placed on a shaker for 5 min, sealed, and incubated overnight at room temperature in dark. Plates were read on the Envision (PerkinElmer) using standard AlphaLISA settings.
The percentage of inhibition on EGFR phosphorylation was calculated following equation: % Inhibition=100×(LumHC−LumSample)/(LumHC−LumLC). The low and high controls (LC/HC) are generated from lysate from wells with cells treated with DMSO or […] Staurosporine (BioAustralis, cat #BIA-S1086), […]. IC50 values were calculated by fitting the Curve using XLfit (v5.3.1.3), equation 201: Y=Bottom+(Top−Bottom)/(1+10^((LogIC50−X)*HillSlope)).

T2 sequence (P04626 23-1255): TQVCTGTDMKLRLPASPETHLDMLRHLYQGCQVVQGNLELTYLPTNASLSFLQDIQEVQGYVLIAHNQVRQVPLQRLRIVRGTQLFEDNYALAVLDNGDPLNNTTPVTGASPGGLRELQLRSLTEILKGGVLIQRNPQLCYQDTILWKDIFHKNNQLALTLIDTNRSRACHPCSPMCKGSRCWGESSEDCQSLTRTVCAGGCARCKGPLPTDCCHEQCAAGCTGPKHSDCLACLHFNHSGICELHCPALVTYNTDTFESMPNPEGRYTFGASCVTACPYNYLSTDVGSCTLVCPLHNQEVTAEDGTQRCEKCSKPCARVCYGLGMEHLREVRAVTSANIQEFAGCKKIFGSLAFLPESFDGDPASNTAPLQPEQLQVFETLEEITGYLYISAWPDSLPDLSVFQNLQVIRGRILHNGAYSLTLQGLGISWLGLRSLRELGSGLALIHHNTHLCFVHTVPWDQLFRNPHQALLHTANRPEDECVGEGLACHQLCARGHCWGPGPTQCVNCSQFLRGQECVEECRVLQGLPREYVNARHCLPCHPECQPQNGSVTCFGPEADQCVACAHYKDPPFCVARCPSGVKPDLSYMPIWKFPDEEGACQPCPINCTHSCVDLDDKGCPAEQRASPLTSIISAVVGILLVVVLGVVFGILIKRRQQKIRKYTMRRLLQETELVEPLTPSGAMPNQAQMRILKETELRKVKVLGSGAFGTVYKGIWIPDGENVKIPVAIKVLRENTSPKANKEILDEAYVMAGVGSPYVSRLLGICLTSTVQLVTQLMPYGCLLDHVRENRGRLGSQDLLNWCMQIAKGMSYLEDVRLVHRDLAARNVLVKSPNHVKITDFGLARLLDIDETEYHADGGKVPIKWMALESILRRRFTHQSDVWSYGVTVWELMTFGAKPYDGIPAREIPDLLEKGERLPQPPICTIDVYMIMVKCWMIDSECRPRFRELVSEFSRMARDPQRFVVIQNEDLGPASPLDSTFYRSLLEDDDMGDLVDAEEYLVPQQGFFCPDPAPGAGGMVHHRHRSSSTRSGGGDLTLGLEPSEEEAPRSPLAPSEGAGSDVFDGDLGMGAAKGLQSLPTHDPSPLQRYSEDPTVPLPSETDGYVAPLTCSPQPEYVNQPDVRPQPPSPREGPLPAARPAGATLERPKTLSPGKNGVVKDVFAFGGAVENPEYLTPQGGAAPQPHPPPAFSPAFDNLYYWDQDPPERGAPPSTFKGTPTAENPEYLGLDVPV
T1 sequence (P04626 with tags, fused parts or gaps DUP772-775): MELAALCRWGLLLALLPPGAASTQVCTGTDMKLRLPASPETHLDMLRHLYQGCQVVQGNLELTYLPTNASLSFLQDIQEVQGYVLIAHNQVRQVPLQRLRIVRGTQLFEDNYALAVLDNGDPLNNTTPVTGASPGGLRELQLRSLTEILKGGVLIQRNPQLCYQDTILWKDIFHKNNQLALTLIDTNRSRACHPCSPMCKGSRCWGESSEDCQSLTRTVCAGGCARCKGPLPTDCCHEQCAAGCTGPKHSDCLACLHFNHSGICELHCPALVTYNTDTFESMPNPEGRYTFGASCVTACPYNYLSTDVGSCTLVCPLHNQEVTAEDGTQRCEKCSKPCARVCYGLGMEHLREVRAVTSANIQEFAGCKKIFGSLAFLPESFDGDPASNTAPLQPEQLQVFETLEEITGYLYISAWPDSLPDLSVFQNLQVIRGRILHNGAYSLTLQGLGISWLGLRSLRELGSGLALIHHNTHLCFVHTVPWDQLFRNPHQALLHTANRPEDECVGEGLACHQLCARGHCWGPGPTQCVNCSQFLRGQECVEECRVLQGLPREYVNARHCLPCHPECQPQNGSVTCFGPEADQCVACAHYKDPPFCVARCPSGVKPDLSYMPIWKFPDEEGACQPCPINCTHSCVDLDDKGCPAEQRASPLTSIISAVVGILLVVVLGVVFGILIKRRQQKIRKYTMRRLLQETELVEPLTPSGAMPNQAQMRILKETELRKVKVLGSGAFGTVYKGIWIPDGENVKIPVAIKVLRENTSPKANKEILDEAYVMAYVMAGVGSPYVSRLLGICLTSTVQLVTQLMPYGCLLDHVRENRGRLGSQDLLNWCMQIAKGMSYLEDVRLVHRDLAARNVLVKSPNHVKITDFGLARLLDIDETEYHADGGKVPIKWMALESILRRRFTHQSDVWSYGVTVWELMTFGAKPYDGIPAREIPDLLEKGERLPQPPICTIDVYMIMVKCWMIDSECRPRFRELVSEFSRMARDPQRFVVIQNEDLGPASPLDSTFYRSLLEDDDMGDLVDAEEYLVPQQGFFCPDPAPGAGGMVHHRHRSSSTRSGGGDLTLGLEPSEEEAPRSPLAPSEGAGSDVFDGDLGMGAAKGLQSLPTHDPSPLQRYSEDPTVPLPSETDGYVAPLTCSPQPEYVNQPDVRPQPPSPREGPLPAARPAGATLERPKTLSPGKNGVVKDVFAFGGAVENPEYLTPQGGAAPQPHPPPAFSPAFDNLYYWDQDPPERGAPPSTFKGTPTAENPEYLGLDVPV
T3 sequence (P00533 25-1210): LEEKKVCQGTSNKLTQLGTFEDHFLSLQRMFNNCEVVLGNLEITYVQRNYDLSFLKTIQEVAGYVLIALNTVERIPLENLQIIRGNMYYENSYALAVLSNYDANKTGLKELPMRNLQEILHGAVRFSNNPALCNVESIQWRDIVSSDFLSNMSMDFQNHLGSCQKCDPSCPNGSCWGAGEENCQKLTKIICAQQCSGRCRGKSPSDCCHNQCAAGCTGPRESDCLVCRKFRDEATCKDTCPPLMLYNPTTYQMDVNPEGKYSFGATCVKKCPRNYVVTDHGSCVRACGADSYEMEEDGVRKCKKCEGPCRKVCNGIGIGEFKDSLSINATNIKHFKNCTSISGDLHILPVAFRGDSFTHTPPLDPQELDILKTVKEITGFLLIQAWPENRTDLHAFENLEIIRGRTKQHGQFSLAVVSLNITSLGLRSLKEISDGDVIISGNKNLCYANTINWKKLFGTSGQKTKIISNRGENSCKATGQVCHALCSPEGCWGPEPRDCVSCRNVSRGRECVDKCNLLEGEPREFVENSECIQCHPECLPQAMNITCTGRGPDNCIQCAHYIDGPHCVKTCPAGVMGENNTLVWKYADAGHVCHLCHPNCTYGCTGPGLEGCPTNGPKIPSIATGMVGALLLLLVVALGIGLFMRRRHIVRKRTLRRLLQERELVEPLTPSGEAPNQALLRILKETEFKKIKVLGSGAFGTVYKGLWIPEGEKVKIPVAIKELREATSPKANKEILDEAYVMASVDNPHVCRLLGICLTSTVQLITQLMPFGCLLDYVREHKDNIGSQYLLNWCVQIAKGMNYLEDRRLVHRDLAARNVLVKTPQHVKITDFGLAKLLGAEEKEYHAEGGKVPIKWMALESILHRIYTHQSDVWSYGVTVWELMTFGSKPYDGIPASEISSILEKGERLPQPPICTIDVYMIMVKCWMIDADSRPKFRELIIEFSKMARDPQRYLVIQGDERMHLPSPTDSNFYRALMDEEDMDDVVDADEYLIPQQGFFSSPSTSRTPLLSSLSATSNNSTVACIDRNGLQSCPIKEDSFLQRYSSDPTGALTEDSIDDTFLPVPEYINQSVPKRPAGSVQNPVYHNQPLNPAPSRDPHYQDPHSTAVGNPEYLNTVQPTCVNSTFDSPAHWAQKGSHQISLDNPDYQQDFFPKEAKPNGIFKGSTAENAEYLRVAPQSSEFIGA

Compound | IC50 [2] | IC50 [3] | GI50 [1]
CC#CC(=O)Nc1cc2c(Nc3ccc(Cc4ccn5ncnc5c4)c(C)c3)ncnc2cc1OCCCN(C)C [Compound 189, N-{7-[3-(dimethylamino)propoxy]-4-[(3-methyl-4-{[1,2,4]triazolo[1,5-a]pyridin-7-ylmethyl}phenyl)amino]quinazolin-6-yl}but-2-ynamide] | 1.87 nM | 106 nM | 2.47 nM
CC#CC(=O)Nc1cc2c(Nc3ccc(Oc4ccc(C)nc4)c(C)c3)ncnc2cc1OCCN(C)C [Compound 186, N-{7-[2-(dimethylamino)ethoxy]-4-({3-methyl-4-[(6-methylpyridin-3-yl)oxy]phenyl}amino)quinazolin-6-yl}but-2-ynamide] | 16.1 nM | 74.5 nM | 
Cc1cc(Nc2ncnc3ccc(NC(=O)C#CC4CC4)cc23)ccc1Oc1ccc([C@@H](F)CF)nc1 [Compound 188, (R)-3-cyclopropyl-N-(4-((4-((6-(1,2-difluoroethyl)pyridin-3-yl)oxy)-3-methylphenyl)amino)quinazolin-6-yl)propiolamide] | 78 nM | 297 nM | 
CC#CC(=O)Nc1cc2c(Nc3ccc(Cc4ccn5ncnc5c4)c(C)c3)ncnc2cc1OCCN(C)C [Compound 196, N-(4-((4-([1,2,4]triazolo[1,5-a]pyridin-7-ylmethyl)-3-methylphenyl)amino)-7-(2-(dimethylamino)ethoxy)quinazolin-6-yl)but-2-ynamide] | 8.36 nM | 943 nM | 9.96 nM
CC#CC(=O)Nc1cc2c(Nc3cc(Cl)c(Oc4ccn5ncnc5c4)cc3F)ncnc2cc1OCCN(C)C [Compound 197, N-(4-((4-([1,2,4]triazolo[1,5-a]pyridin-7-yloxy)-5-chloro-2-fluorophenyl)amino)-7-(2-(dimethylamino)ethoxy)quinazolin-6-yl)but-2-ynamide] | 11.4 nM | 555 nM | 
Cc1cc(Nc2ncnc3cc(OCCN(C)C)c(NC(=O)C#CC4CC4)cc23)c(F)cc1Oc1ccn2ncnc2c1 [Compound 181, N-(4-(4-([1,2,4]triazolo[1,5-a]pyridin-7-yloxy)-2-fluoro-5-methylphenylamino)-7-(2-(dimethylamino)ethoxy)quinazolin-6-yl)-3-cyclopropylpropiolamide formate] | 22.8 nM | 971 nM | 
CC#CC(=O)Nc1cc2c(Nc3ccc(Oc4ccn5ncnc5c4)c(C)c3)ncnc2cn1 [Compound 199, N-(4-((4-([1,2,4]triazolo[1,5-a]pyridin-7-yloxy)-3-methylphenyl)amino)pyrido[3,4-d]pyrimidin-6-yl)but-2-ynamide] | 4.7 nM | 57.5 nM | 2.51 nM
CC#CC(=O)Nc1cc2c(Nc3ccc(Oc4ccn5ncnc5c4)c(C)c3F)ncnc2cc1OCCN(C)C [Compound 180, N-(4-((4-([1,2,4]triazolo[1,5-a]pyridin-7-yloxy)-2-fluoro-3-methylphenyl)amino)-7-(2-(dimethylamino)ethoxy)quinazolin-6-yl)but-2-ynamide] | 23.4 nM | 1590 nM | 
Cc1c(Oc2ccn3ncnc3c2)ccc(Nc2ncnc3cc(OCCN(C)C)c(NC(=O)C#CC4CC4)cc23)c1F [Compound 179, N-(4-((4-([1,2,4]triazolo[1,5-a]pyridin-7-yloxy)-2-fluoro-3-methylphenyl)amino)-7-(2-(dimethylamino)ethoxy)quinazolin-6-yl)-3-cyclopropylpropiolamide] | 121 nM | 2550 nM | 
Cc1cc(Nc2ncnc3cc(OCCN(C)C)c(NC(=O)C#CC4CC4)cc23)ccc1Oc1ccn2ncnc2c1 [Compound 170, 3-cyclopropyl-N-{7-[2-(dimethylamino)ethoxy]-4-[(3-methyl-4-{[1,2,4]triazolo[1,5-a]pyridin-7-yloxy}phenyl)amino]quinazolin-6-yl}prop-2-ynamide hydrochloride] | 14 nM | 418 nM | 
CC#CC(=O)Nc1cc2c(Nc3cc(C)c(Oc4ccn5ncnc5c4)cc3F)ncnc2cc1OCCN(C)C [Compound 182, N-{7-[2-(dimethylamino)ethoxy]-4-[(2-fluoro-5-methyl-4-{[1,2,4]triazolo[1,5-a]pyridin-7-yloxy}phenyl)amino]quinazolin-6-yl}but-2-ynamide] | 13.2 nM | 1490 nM | 

The next lines start with results.

IC50 [2] | IC50 [3] | Compound | GI50 [1]
153 nM | 1970 nM | CC#CC(=O)Nc1cc2c(Nc3ccc(Oc4cnn(C)c(=O)c4)c(C)c3)ncnc2cc1OCCN(C)C [Compound 201, N-{7-[2-(dimethylamino)ethoxy]-4-({3-methyl-4-[(1-methyl-6-oxopyridazin-4-yl)oxy]phenyl}amino)quinazolin-6-yl}but-2-ynamide] | 346 nM
21.8 nM | 543 nM | CC#CC(=O)Nc1cc2c(Nc3ccc(Cc4ccn5ncnc5c4)c(F)c3)ncnc2cc1OCCN(C)C [Compound 202, N-{7-[2-(dimethylamino)ethoxy]-4-[(3-fluoro-4-{[1,2,4]triazolo[1,5-a]pyridin-7-ylmethyl}phenyl)amino]quinazolin-6-yl}but-2-ynamide] | 49.4 nM
32.4 nM | 579 nM | CC#CC(=O)Nc1ccc2ncnc(Nc3ccc(Oc4ccc5c(c4)ncn5C)c(C)c3)c2c1F [Compound 213, N-[5-fluoro-4-({3-methyl-4-[(1-methyl-1,3-benzodiazol-5-yl)oxy]phenyl}amino)quinazolin-6-yl]but-2-ynamide] | 9.65 nM
3.7 nM | 69.6 nM | CC#CC(=O)Nc1cc2c(Nc3ccc(Oc4ccn5ncnc5c4)c(Cl)c3)ncnc2cc1OCCN(C)C [Compound 200, N-(4-((4-([1,2,4]triazolo[1,5-a]pyridin-7-yloxy)-3-chlorophenyl)amino)-7-(2-(dimethylamino)ethoxy)quinazolin-6-yl)but-2-ynamide] | 2.63 nM
6.05 nM | 45.5 nM | CC#CC(=O)Nc1cc2c(Nc3ccc(Oc4ccn5ncnc5c4)c(C)c3)ncnc2cc1OCCN1CCN(C)CC1 [Compound 203, N-{4-[(3-methyl-4-{[1,2,4]triazolo[1,5-a]pyridin-7-yloxy}phenyl)amino]-7-[2-(4-methylpiperazin-1-yl)ethoxy]quinazolin-6-yl}but-2-ynamide] | 5.11 nM
